Source: ChEMBL document CHEMBL5029183 (J Med Chem, 2021)
The source made the active and inactive calls.

Legend:
[1] = Toxicity in icv dosed Kunming mouse assessed as inhibition of gastrointestinal transit by measuring charcoal distance travel by charcoal meal test; assay type: organism-based; settings: in vivo, icv_or_intrathecal, dose 0.67-6.7 nmol
Mus musculus [2] = assay: Antinociceptive tolerance in Kunming mouse pretreated with compound for 3 hrs followed by challenge with second dose of compound at 20 nmol, icv and measured after 1 to 1.5 hrs by radiant heat paw withdrawal test; assay type: functional, organism-based; settings: time 4-4.5 hrs
Vas deferens = assay: Inhibition of electric-field induced mouse vas deferens contraction; assay type: functional, tissue-based
[3] = target: Delta-type opioid receptor (Rattus norvegicus, UniProt P33533); assay: Displacement of [3H]DPDPE from DOR in Wistar rat brain membranes measured after 3 hrs by scintillation counting method; assay type: cell membranes, Membrane
Mus musculus [4] = assay: Antinociceptive activity in Kunming mouse model assessed as increase in paw withdrawal latency at 20 nmol, icv pretreated for 20 mins with naloxonazine followed by compound addition and measured upto 10 mins by radiant heat paw withdrawal assay; assay type: functional, organism-based; settings: time min <=10
[5] = target: Kappa-type opioid receptor (Homo sapiens) (UniProt P41145); assay: Agonist activity at kappa-opioid receptor (unknown origin) expressed in HEK293 cells assessed as inhibition of forskolin-induced cAMP accumulation incubated for 15 mins by ELISA; assay type: functional, cell-based
Mus musculus [6] = assay: Antiallodynic activity in Kunming mouse model of spared nerve injury-induced neuropathic pain assessed as increase in paw withdrawal threshold at 10 micromol/kg, sc by von Frey test; assay type: functional, organism-based; settings: dose 10.0 µmol/kg
Mu-type opioid receptor = Mu-type opioid receptor (Rattus norvegicus, UniProt P33535); assay: Displacement of [3H]DAMGO from MOR in Wistar rat brain membranes measured after 1 hr by scintillation counting method; assay type: cell membranes, Membrane
Mus musculus [7] = assay: Antinociceptive activity in Kunming mouse model assessed as increase in paw withdrawal latency at 20 nmol, icv pretreated for 30 mins with nor-BNI followed by compound addition and measured upto 10 mins by radiant heat paw withdrawal assay; assay type: functional, organism-based; settings: time min <=10
Rattus norvegicus = species: Rattus norvegicus; assay: Selectivity index, ratio of Ki for displacement of [3H]-U69593 from KOR in Wistar rat brain membranes to Ki for displacement of [3H]DAMGO from MOR in Wistar rat brain membranes; assay type: cell membranes
Mus musculus [8] = assay: Antinociceptive activity in icv dosed Kunming mouse model assessed as increase in paw withdrawal latency by radiant heat paw withdrawal assay; assay type: functional; settings: dose 0.67-20 nmol
Mus musculus [9] = assay: Chronic antinociceptive tolerance in Kunming mouse assessed as maximum possible effect pretreated with compound followed by repeated compound addition at 20 nmol, icv once daily for 7 days and measured after 10 mins by radiant heat paw withdrawal test; assay type: functional; settings: time 7 day
Mus musculus [10] = assay: Antinociceptive activity in Kunming mouse model assessed as maximum possible effect at 10 micromol/kg, sc by radiant heat paw withdrawal assay; assay type: functional; settings: dose 10 µmol/kg
Mus musculus [11] = assay: Antinociceptive activity in Kunming mouse model assessed as increase in paw withdrawal latency at 0.67 to 20 nmol, icv measured upto 50 mins by radiant heat paw withdrawal assay; assay type: functional, organism-based; settings: dose 0.67-20 nmol, time min <=50
Mus musculus [12] = assay: Antiallodynic activity in Kunming mouse model of spared nerve injury-induced neuropathic pain assessed as increase in paw withdrawal threshold at 0.67 to 6.7 nmol, icv after 50 mins by von Frey test; assay type: functional, organism-based; settings: dose 0.67-6.7 nmol
Mus musculus [13] = assay: Antiallodynic activity in Kunming mouse model of spared nerve injury-induced neuropathic pain assessed as increase in paw withdrawal threshold at 0.67 to 6.7 nmol, icv by von Frey test; assay type: functional, organism-based; settings: dose 0.67-6.7 nmol, time min <=50, TDE = time-dependent effect
Mus musculus [14] = assay: Chronic antinociceptive tolerance in Kunming mouse pretreated with compound followed by repeated compound addition at 20 nmol, icv once daily for 7 days and measured after 10 mins by radiant heat paw withdrawal test; assay type: functional, organism-based; settings: time 7.0 day

Chain of Delta-type opioid receptor (P33533 whole entry): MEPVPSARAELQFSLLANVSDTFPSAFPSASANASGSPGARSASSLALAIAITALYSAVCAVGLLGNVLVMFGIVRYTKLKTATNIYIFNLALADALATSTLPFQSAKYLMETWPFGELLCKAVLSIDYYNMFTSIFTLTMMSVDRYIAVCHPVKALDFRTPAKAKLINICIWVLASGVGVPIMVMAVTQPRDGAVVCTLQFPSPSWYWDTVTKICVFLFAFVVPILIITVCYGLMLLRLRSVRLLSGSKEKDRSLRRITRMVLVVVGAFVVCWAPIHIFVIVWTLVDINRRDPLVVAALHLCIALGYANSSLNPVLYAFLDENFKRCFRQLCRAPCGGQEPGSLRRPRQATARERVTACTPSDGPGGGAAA
Chain of Kappa-type opioid receptor (Homo sapiens) (P41145 whole entry): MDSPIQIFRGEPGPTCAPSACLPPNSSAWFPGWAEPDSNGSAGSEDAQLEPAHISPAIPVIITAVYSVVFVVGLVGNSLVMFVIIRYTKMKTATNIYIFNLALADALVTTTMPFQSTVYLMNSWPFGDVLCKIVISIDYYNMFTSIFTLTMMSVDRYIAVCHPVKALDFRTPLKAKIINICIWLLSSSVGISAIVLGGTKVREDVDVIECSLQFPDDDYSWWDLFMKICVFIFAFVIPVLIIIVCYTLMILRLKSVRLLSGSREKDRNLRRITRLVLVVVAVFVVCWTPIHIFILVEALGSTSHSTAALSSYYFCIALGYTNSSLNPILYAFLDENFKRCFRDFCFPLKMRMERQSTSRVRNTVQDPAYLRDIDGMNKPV
Chain of Mu-type opioid receptor (P33535 whole entry): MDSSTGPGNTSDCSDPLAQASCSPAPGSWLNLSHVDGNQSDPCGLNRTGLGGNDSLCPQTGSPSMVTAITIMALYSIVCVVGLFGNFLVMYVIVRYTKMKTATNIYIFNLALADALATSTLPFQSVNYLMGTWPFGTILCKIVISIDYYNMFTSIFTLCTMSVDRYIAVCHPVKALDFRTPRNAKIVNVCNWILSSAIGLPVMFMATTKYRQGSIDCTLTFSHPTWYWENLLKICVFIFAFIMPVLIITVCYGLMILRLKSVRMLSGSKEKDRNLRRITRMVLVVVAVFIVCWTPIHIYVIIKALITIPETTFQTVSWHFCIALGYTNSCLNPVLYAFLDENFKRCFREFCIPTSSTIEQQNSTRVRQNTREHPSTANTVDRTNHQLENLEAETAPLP

SMILES	Activity [1]	Activity (Mus musculus [2])	IC50 (Vas deferens) [nM]	Ki [3] [nM]	Activity (Mus musculus [4])	Activity [5]	Activity (Mus musculus [6])	Ki (Mu-type opioid receptor) [nM]	Activity (Mus musculus [7])	Ratio Ki (Rattus norvegicus)	Activity (Mus musculus [8])	ED50 (Mus musculus [8]) [nmol]	MPE (Mus musculus [9]) [%]	MPE (Mus musculus [10]) [%]	Activity (Mus musculus [11])	Activity (Mus musculus [12])	Activity (Mus musculus [13])	Activity (Mus musculus [14])
Cc1cc(O)cc(C)c1C[C@H](N)C(=O)N[C@H]1CSSC[C@@H](C(=O)NCC(=O)N[C@H](CCCNC(=N)N)C(=O)N[C@H](CCCNC(=N)N)C(=O)O)NC(=O)[C@H](Cc2ccc(Cl)cc2)NC(=O)[C@H](Cc2ccccc2)NC1=O	Dose-Dependent Effect	inactive	49.3	4270	inactive	inactive	Active	6.06	inactive	710	Dose-Dependent Effect	2.3	77.25	75.33	Active	inactive	Tde	
Cc1cc(O)cc(C)c1C[C@H](N)C(=O)N[C@H]1CSSC[C@@H](C(=O)NCC(=O)N[C@H](CCCNC(=N)N)C(=O)N[C@H](CCCNC(=N)N)C(=O)O)NC(=O)[C@H](Cc2ccc(Cl)cc2)NC(=O)[C@H](Cc2c[nH]c3ccccc23)NC1=O	Dose-Dependent Effect	inactive	47.5	2090	Active	inactive	Active	5.78	Active	548	Dose-Dependent Effect	2.1		79.76	Active	inactive	Tde	inactive
